From patent US11752131B2, “Methods and pharmaceutical compositions for the treatment of obesity” (INSERM (Institut National de la Sante et de la Recherche …, priority 2016, dated 2023)

Key:
HFD-fed mice [1] = test: Insulin tolerance test (ITT) in HFD-fed mice; assay type: in vivo; conditions: after 9 wks of HFD (FIG. 2A) and 20 wks of FAT diet (FIG. 2B), insulin 0.75 U/kg i.p., adjusted on percentage of fat mass gained
Method: (§1) C57BL/6 Ido-1−/− mice were from the Jackson Laboratory. Seven week-old Bl6 and Idoko male mice were subjected to HFD containing 60% fat during 20 weeks.
Insulin tolerance tests (ITT) was performed in mice food deprived 5 h prior intraperitoneal injection of insulin (0.75 U/kg). Blood was sampled from the tail vein at 0, 5, 15, 30, 60 and 120 min in order to assay glucose concentration (glucometer, France).
We next examined the effect of Ido deficiency or inhibition on glucose homeostasis in HFD-fed mice. To this end, we performed insulin tolerance tests (ITT) on Bl6, Idoko mice and Ido inhibitor (L-1 methyl tryptophan, L-1MT)-treated mice after 9 wks or 20 wks of HFD.

HFD-fed mice [2] = test: Oral glucose tolerance test (OGTT) with HOMA-IR index in HFD-fed mice; assay type: in vivo; conditions: after 9 or 20 wks of HFD, normalized to fat mass (FIG. 3), versus Bl6 mice
Method: as §1
The oral glucose tolerance test was performed in mice food deprived for overnight prior to an oral administration of 3 g/kg glucose. Blood was sampled from the tail vein at 0, 5, 15, 30, 60 and 120 min in order to assay glucose concentration (glucometer, France). Plasma insulin concentration was measured using ELISA kit (Crystal Chem Inc., Downers Grove, Ill., USA). HOMA-IR in mice was calculated using the equation (fasting glucose concentration×fasting insulin concentration)/405).
Moreover, the insulin resistance index (HOMA-IR) was lower in Ido KO mice or L1MT-treated mice after 9 or 20 wks of HFD (FIG. 3).

Cn1cc(C[C@H](N)C(=O)O)c2ccccc21 [L-1MT, L-1 methyl tryptophan]
insulin sensitivity in insulin tolerance test (ITT) versus Bl6 mice (HFD-fed mice [1]): more insulin sensitive
insulin resistance index (HOMA-IR) (HFD-fed mice [2]): lower
